Patent publication US10064831B2, “Active substances and cosmetic or dermatological preparations containing said active substances for the care of the skin of patients of diabetes mellitus” (BEIERSDORF AG, priority 2015, dated 2018)

System: glyoxalases
Test: induction of glyoxalase activity in skin cells
Format: cell-based
Conditions: no method or numbers given

## C=CC(C)(C)c1cc(/C=C/C(=O)c2ccc(O)cc2)c(OC)cc1O [licochalcone A]
  activity of glyoxalases induced in skin cells: enhanced activity of glyoxalases
